Entries after “also recorded” stand apart in the source; their conditions may differ.
How the values were obtained:
[1] = biological target: T1, human Endothelin receptor type A (ETA) (Homo sapiens, UniProt P25101); assay: ETA (h) cellular antagonist effect; assay type: cell-based
T1 sequence (P25101 21-427): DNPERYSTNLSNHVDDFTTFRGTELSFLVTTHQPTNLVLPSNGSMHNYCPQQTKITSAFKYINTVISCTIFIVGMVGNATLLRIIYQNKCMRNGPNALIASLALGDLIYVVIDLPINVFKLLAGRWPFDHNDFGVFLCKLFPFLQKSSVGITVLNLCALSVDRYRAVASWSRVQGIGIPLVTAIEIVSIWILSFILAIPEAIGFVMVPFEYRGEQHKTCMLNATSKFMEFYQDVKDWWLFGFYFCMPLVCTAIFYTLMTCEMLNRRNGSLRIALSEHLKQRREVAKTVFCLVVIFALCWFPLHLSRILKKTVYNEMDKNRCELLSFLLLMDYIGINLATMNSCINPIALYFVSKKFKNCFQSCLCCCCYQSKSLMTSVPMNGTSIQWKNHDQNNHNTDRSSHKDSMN
Experimental: FIGS. 5A and 5B illustrate human (“h”) Endothelin receptor type A (“ETA”) inhibitory effect for A) BQ-788 and B) BQ-788-B (Compound 1), a specifically deuterated ETBR antagonist. Cellular agonist effect was calculated as a % of control response to a known reference agonist for ETA (h), and cellular antagonist effect was calculated as a % inhibition of control reference agonist response for ETA.
Determination of ETA (h) inhibitory effect for BQ-788 and BQ-788-B (COMPOUND 1). […] Cellular agonist effect was calculated as a % of control response to a known reference agonist for ETA (h), and cellular antagonist effect was calculated as a % inhibition of control reference agonist response for ETA.

plasma ET-1 = assay: Plasma ET-1 ELISA after IV infusion, indirect measure of ETBR engagement; assay type: in vivo; settings: rats, 250 μg/kg IV infusion
Experimental: Plasma concentrations of BQ-788 versus BQ-788-B (COMPOUND 1). […] Briefly, rats (N=4 animals per timepoint) were administered either BQ-788 or the deuterated form, BQ-788-B (COMPOUND 1) at a dose of 250 μg/kg via IV infusion. Plasma samples were collected at various time points and ET-1 ELISA performed. BQ788 and BQ788-B are peptide drugs that are rapidly degraded in plasma and thus drug levels are difficult to detect directly. […] As such, plasma levels of ET-1 are commonly used as an indirect measure of BQ-788 biologic activity.

Recombinant human CXCR4 = biological target: T2, Recombinant human CXCR4 (Homo sapiens, UniProt P61073); assay: CXCR4 (h) cellular antagonist effect, impedance by dielectric spectroscopy; assay type: cell-based; settings: CHO cells, stimulated with 1 nM SDF-1α, 28° C
T2 construct: expressed in transfected cells; host or cells: CHO cells
T2 sequence (P61073 whole entry): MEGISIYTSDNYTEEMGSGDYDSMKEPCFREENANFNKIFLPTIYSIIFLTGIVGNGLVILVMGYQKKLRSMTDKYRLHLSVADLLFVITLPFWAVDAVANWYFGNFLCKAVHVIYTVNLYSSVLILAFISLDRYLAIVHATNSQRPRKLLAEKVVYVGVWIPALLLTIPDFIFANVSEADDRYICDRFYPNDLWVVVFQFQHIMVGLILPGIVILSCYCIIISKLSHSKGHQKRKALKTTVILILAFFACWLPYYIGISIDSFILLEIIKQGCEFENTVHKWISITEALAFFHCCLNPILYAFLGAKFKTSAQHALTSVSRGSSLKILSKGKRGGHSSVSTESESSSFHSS
Experimental: FIGS. 4A and 4B illustrates human (“h”) CXCR inhibitory effects for, A) BQ-788 and B) BQ-788-B (Compound 1), a specifically deuterated ETBR antagonist. Cellular agonist effect was calculated as a % of control response to a known reference agonist for CXCR4 (h), and cellular antagonist effect was calculated as a % inhibition of control reference agonist response for CXCR4.
Determination of CXCR4 inhibitory effect. The inhibitory effect on CXCR4 (h) was determined for BQ-788 (FIG. 4A), and BQ-788-B (COMPOUND 1) (FIG. 4B). Cellular agonist effect was calculated as a % of control response to a known reference agonist for CXCR4 (h), and cellular antagonist effect was calculated as a % inhibition of control reference agonist response for CXCR4. Recombinant human CXCR4 was expressed in CHO cells, and stimulated with 1 nM SDF-1α and incubated at 28° C. Dielectric spectroscopy was used to measure impedance of the cells.

[2] = test system: V600E+ (BRAF mutated) SM1 tumor; assay: Syngeneic melanoma V600E+ (BRAF mutated) SM1 tumor model, tumor volume and IHC; assay type: in vivo, C57BL/6 mice
Experimental: The syngeneic melanoma model V600E+ (BRAF mutated) SM1 tumor model was used in C57BL/6 mice to assess efficacy of deuterated ETBR antagonists in combination with immunotherapeutics (“B+P”) as compared to a standard treatment, dabrafenib with anti-PD1 (“D+P”). […] In this study 6-8 week old female C57BL/6 mice were inoculated with SM1 tumor fragments (TME* components present). Dosing was initiated when tumors were 150 mm3. The general dosing schemes were as follows: dabrafenib (30 mg/kg daily by oral gavage), immunotherapeutic 10 mg/kg Q4D IP beginning 2 days after dabrafenib), deuterated ETBR antagonist (4 μg administered QOD IV beginning 2 days after dabrafenib). Tumors were measured three times per week, and the study was terminated after 21 days of dosing and IHC analysis of tumors was performed.
TLOs are functionally equivalent to lymph nodes, produce tumor-specific T- and B-cells, and induce long lasting anti-tumor immunity.
FIG. 11 provides table summaries of the results obtained with combination therapies (two- and three-part), TLO formation and efficacy for tumor eradication. The model system tested is as described for FIG. 8. The combinations included dabrafenib+anti-PD1 (“D+P”); dabrafenib+anti-PD1+BQ-788-B (COMPOUND 1) at 0.6 μg (“D+P+B (0.6 μg)”); dabrafenib+anti-PD1+BQ-788-B (COMPOUND 1) at 4.0 μg (“D+P+B (4.0 μg)”); dabrafenib+anti-PD1+BQ-788-B (COMPOUND 1) at 100 μg (“D+P+B (100 μg)”); and anti-PD1+BQ-788-B (COMPOUND 1) at (4.0 μg) (“P+B (4.0 μg)”). […] FIG. 12 presents the efficacy results as a function of tumor volume (mm3).
6 week old female C57BL/6 mice, n=5 per group, were implanted with V600E+ melanoma cancer tumor cells. Once tumors were established, mice were dosed with ETBR antagonists and immune checkpoint inhibitors combination therapy. 21 days post treatment, histological examination was performed, FIG. 20.

[3] = test system: bladder cancer tumor cells, MB49-PDIRA-220; assay: Syngeneic bladder cancer murine model, tumor volume; assay type: in vivo, C57BL/6 mice; settings: for anti-bladder cancer treatment efficacy (tumor volume): vs control and single agents
Experimental: 6 week old female C57BL/6 mice, n=5 per group, were implanted with bladder cancer tumor cells, MB49-PDIRA-220 at the right flank. When tumors reached from about 50 mm^3-75 mm^3 in volume, mice were separated into 4 treatment groups: (1) dosed with 4 μg of BQ-788-B (Compound 1) intravenously on days 1, 3, 5, 8, 10, 12 and 15 and with 100 μg of an anti-PD-1 agent intraperitoneally on days 1, 4, 9 and 13; (2) dosed with 4 μg of BQ-788-B (Compound 1) intravenously on days 1, 3, 5, 8, 10, 12 and 15; (3) dosed with 100 μg of an anti-PD-1 agent intraperitoneally on days 1, 4, 9 and 13; or (4) untreated control. Tumor volume measurements were taken every two days post treatment.
6 week old female C57BL/6 mice, n=5 per group, were implanted with bladder cancer tumor cells, MB49-PD1RA-220 at the right flank. When tumors reached from about 100 mm^3 in volume, mice were separated into 4 treatment groups: (1) dosed with BQ-788-B (Compound 1) intravenously on days 1, 3, 5, and 8 with 100 μg of an immunotherapeutic agent, namely an anti-PD-1 antibody intraperitoneally on days 1, 4, 9 and 13 (2) dosed with 4 μg of BQ-788-B (Compound 1) intravenously on days 1, 3, 5, and 8 (3) dosed with 100 μg of an anti-PD-1 agent intraperitoneally on days 1, 4, 9 and 13 or (4) untreated control. Tumor volume measurements were taken 3 times per week. The study was terminated on day 8 due to morbidity of control groups.
6 week old female C57BL/6 mice, n=5 per group, were implanted with bladder cancer tumor cells, MB49-PDIRA-220 at the right flank. When tumors reached from about 25 mm^3-50 mm^3 volume, mice were separated into 4 treatment groups: (1) dosed with 4 μg of BQ-788-B (BQ788) intravenously on days 1, 3, 5, and 8 with 100 μg of an anti-PD-1 agent intraperitoneally on days 1, 4, and 9 (2) dosed with 4 μg of BQ-788-B (BQ788) intravenously on days 1, 3, 5, and 8 (3) dosed with 100 μg of an anti-PD-1 agent intraperitoneally on days 1, 4, and 9 or (4) untreated control. Tumor volume measurements were taken 3 times per week. The study was terminated on day 12 due to morbidity of control groups.

[4] = combination with anti-PD1, histology 21 days after treatment

| SMILES | IC50, ETA (h) inhibitory effect [1] | plasma ET-1 transient peak at (plasma ET-1) | IC50, CXCR4 (h) inhibitory effect (Recombinant human CXCR4) | plasma ET-1 prolonged peak out to (plasma ET-1) | plasma ET-1 response relative to BQ-788 (plasma ET-1) | CD8+ TIL staining distribution ([2]; BQ-788-B 0.6 μg + immune checkpoint inhibitor + dabrafenib, 21 days) | CD8+ TIL staining distribution ([2]; BQ-788-B 4.0 μg + anti-PD1 + dabrafenib, 21 days) | CD8+ TIL staining distribution ([2]; BQ-788-B 100 μg + anti-PD1 + dabrafenib, 21 days) | interaction with anti-PD1 / anti-oncologic agents ([2]; combination therapy, tumor volume) | lymphocyte infiltration of tumor (CD8+, CD4+, Treg staining) [2, 4] | tertiary lymphoid organ (TLO) formation [2, 4] | tumor outcome (volume, IHC) ([2]; deuterated ETBR antagonist 4 μg QOD IV + anti-PD1 10 mg/kg Q4D IP, 21 days) | interaction with anti-PD1 ([3]; Example 3) | anti-bladder cancer treatment efficacy (tumor volume) ([3]; Example 3: 4 μg IV days 1,3,5,8,10,12,15 + 100 μg anti-PD-1 IP) | interaction with anti-PD1 ([3]; Example 5) | anti-bladder cancer treatment efficacy (tumor volume) ([3]; Example 5: IV days 1,3,5,8 + 100 μg anti-PD-1 IP, tumors about 100 mm^3 at start) | interaction with anti-PD1 ([3]; Example 6) | anti-bladder cancer treatment efficacy (tumor volume) ([3]; Example 6: 4 μg IV days 1,3,5,8 + 100 μg anti-PD-1 IP days 1,4,9) | tumor outcome (volume) ([2]; dabrafenib 30 mg/kg daily oral gavage + anti-PD1 10 mg/kg Q4D IP, 21 days) | effect of adding dabrafenib to anti-PD1/BQ-788-B combination ([2]; triple combination, tumor volume) |
| --- | --- | --- | --- | --- | --- | --- | --- | --- | --- | --- | --- | --- | --- | --- | --- | --- | --- | --- | --- | --- |
| CCCC[C@@H](NC(=O)[C@@H](Cc1cn(C(=O)OC)c2ccccc12)NC(=O)[C@H](CC(C)(C)C)NC(=O)N1[C@H](C)CCC[C@@H]1C)C(=O)O [BQ-788, N-[([2R,6S]-2,6-dimethyl-1-piperidinyl)carbonyl]-4-methyl-L-leucyl-N-[(1R)-1-carboxylatopentyl]-1-[methoxycarbonyl]-D-tryptophanamide, reference compound] | not calculable | about 30 minutes | – | – | – | – | – | – | – | – | – | – | – | – | – | – | – | – | – | – |
| [2H]CC1CCCC(C[2H])N1C(=O)NC(CC(C)(C)C)C(=O)NC(Cc1cn(C(=O)OC)c2ccccc12)C(=O)NC(CCCC)C(=O)O (stereo not drawn) [BQ-788-B] | not calculable | – | not calculable | about 3 hours | enhanced duration and amplitude of response; also recorded: enhanced plasma ET-1 concentration | diffuse CD8+ TIL staining | peripheral distribution of TILs | peripheral distribution of TILs | synergistic results; also recorded: synergistic activity; also recorded: restores sensitivity to the anti-PD1 antibody | robust infiltration by CD8+ lymphocytes (TILs); also recorded: strong mobilization of lymphocytes to the tumor | most frequently associated with intratumoral TLO formation and tumor reduction; also recorded: induced tertiary lymphoid organ (TLO) formation | tumor shrinkage below baseline; also recorded: tumors had been eradicated leaving only residual adipose tissue; also recorded: eradicated the tumors | synergy | greatest anti-bladder cancer treatment efficacy | synergy | greatest anti-bladder cancer treatment efficacy | synergy | greatest anti-bladder cancer treatment efficacy | – | – |
| CC(C)(C)c1nc(-c2cccc(NS(=O)(=O)c3c(F)cccc3F)c2F)c(-c2ccnc(N)n2)s1 [dabrafenib, reference compound] | – | – | – | – | – | – | – | – | – | – | – | – | – | – | – | – | – | – | failed to shrink tumors but demonstrated intermediate tumor growth inhibition | impairs efficacy |
